# According to US12486290B2, “Isoindolinone and indazole compounds for the degradation of EGFR” (C4 THERAPEUTICS, INC., priority 2019, dated 2025):
# Target: T1, EGFR L858R (NCI-H3255 cells) (Homo sapiens, UniProt P00533, L858R)
# T1 construct: NCI-H3255 (harboring EGFR heterozygous L858R mutation); host or cells: NCI-H3255
# Assay: EGFR (L858R) degradation analysis, Total EGFR (L858R) HTRF, NCI-H3255 cells
# Type: cell-based
# Settings: 6 hours
# Text: (§1) NCI-H1975 (harboring EGFR heterozygous T790M/L858R mutations) and NCI-H3255 (harboring EGFR heterozygous L858R mutation) were purchased from ATCC and NCI, respectively. NCI-H1975+CS (harboring EGFR heterozygous T/790M/L858R/C797S mutations) was generated using CRISPR technology to introduce the additional C797S mutation by Horizon Discovery. RPMI 1640 no-phenol red medium and fetal bovine serum (FBS) were purchased from Gibco (Grand Island, NY, USA). Cell culture flasks and 384-well microplates were acquired from VWR (Radnor, PA, USA). Total EGFR (L858R) HTRF assay kits were purchased from Cisbio (Bedford, MA, USA).
# (§2) Degradation of EGFR protein containing L858R mutation was determined based on quantification of FRET signal using Total EGFR (L858R) HTRF assay kit. Test compounds were added to the 384-well plate from a top concentration of 10 μM with 11 points, half log titration in duplicates. NCI-H1975, NCI-H1975+CS or NCI-H3255 cells were added into 384-well plates at a cell density of 10000, 10000 or 1000 cells per well, respectively. The plates were kept at 37° C. with 5% CO2 for 6 hours. Cells treated in the absence of the test compound were the negative control. Positive control was set by wells containing all reagents but no cells. FRET signal was acquired on EnVision™ Multilabel Reader (PerkinElmer, Santa Clara, CA, USA).
# T1 sequence (P00533 25-1210 L858R): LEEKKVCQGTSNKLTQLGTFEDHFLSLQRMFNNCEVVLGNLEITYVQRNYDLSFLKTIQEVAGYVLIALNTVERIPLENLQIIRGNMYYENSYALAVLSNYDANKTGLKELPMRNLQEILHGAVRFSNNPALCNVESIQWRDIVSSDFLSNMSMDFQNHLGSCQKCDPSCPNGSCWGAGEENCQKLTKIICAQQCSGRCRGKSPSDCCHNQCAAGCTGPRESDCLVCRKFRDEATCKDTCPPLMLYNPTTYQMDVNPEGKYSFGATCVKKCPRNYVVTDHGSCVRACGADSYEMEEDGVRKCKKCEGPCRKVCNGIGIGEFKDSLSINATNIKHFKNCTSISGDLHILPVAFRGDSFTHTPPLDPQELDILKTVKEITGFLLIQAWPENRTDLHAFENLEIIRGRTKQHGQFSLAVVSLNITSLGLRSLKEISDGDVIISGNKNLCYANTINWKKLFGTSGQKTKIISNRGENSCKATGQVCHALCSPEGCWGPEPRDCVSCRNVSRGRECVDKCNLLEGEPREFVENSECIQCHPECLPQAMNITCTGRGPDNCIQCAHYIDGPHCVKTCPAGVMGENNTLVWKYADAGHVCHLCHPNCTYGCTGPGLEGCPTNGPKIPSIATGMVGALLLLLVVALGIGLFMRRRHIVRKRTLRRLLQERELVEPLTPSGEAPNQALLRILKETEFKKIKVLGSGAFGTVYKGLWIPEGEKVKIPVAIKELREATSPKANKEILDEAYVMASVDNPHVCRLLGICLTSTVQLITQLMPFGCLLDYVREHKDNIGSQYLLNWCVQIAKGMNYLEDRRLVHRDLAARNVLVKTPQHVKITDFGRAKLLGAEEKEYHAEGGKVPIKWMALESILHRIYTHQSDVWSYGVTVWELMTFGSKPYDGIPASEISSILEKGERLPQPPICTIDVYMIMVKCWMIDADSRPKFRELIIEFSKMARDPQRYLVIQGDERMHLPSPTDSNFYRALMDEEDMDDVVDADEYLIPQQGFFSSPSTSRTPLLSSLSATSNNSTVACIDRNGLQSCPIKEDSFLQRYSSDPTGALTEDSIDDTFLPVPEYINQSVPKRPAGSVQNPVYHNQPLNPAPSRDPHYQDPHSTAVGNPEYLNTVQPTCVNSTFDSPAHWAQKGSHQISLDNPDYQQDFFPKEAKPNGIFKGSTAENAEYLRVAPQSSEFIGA
row,DC50 [nM],SMILES
1,9,"O=C1CC[C@H](Nc2ccc(C3CCN(CC(=O)N4CCC(NC(=O)c5ccc(C#Cc6cc(F)c7c(c6)C(=O)N(C(C(=O)Nc6nccs6)c6ncn8c6CCC8)C7)cn5)CC4)CC3)c(F)c2)C(=O)N1 (stereo partly drawn) [Compound 4, 5-[2-[2-[1-(6,7-dihydro-5H-pyrrolo[1,2-c]imidazol-1-yl)-2-oxo-2-(thiazol-2-ylamino)ethyl]-7-fluoro-3-oxo-isoindolin-5-yl]ethynyl]-N-[1-[2-[4-[4-[[(3S)-2,6-dioxo-3-piperidyl]amino]-2-fluoro-phenyl]-1-piperidyl]acetyl]-4-piperidyl]pyridine-2-carboxamide]"

# Target: T2, EGFR T790M/L858R (NCI-H1975 cells) (Homo sapiens, UniProt P00533, L858R/T790M)
# T2 construct: NCI-H1975 (harboring EGFR heterozygous T790M/L858R mutations); host or cells: NCI-H1975
# T2 sequence (P00533 25-1210 T790M/L858R): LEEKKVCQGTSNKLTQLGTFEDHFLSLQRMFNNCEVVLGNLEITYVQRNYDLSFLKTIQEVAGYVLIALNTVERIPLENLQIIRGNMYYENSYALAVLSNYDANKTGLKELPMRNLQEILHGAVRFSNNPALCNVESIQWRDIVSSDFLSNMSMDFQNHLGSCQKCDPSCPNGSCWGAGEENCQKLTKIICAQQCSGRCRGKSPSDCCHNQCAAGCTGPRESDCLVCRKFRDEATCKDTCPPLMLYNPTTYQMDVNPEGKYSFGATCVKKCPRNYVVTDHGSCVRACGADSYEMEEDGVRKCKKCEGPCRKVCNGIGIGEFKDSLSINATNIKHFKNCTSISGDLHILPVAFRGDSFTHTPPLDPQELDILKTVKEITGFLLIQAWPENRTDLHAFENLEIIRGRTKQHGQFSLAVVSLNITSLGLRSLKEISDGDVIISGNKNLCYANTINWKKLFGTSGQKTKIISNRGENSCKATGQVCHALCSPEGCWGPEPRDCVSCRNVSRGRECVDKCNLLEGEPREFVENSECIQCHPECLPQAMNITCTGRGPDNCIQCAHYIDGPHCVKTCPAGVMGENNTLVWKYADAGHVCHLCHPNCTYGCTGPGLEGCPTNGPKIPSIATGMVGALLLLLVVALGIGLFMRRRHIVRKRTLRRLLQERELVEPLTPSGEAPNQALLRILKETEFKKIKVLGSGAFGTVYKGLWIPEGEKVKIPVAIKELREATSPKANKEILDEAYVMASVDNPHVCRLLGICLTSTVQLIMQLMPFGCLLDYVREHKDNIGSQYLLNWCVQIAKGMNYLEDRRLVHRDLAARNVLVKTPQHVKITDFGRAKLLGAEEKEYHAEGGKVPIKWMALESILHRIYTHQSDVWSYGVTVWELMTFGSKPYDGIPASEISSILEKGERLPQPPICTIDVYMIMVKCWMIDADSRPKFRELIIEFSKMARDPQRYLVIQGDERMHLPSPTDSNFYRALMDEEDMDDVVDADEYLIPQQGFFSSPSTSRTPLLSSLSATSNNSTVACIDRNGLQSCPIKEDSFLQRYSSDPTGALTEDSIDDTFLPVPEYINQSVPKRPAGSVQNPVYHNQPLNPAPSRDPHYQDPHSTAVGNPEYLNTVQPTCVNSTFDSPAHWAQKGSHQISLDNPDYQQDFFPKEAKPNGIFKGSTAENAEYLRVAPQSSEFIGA
# Assay: EGFR (L858R) degradation analysis, Total EGFR (L858R) HTRF, NCI-H1975 cells
# Type: cell-based
# Settings: 6 hours
# Text: as §1, §2
row,SMILES,DC50 [nM]
1,"O=C1CC[C@H](Nc2ccc(C3CCN(CC(=O)N4CCC(NC(=O)c5ccc(C#Cc6cc(F)c7c(c6)C(=O)N(C(C(=O)Nc6nccs6)c6ncn8c6CCC8)C7)cn5)CC4)CC3)c(F)c2)C(=O)N1 (stereo partly drawn) [Compound 4, 5-[2-[2-[1-(6,7-dihydro-5H-pyrrolo[1,2-c]imidazol-1-yl)-2-oxo-2-(thiazol-2-ylamino)ethyl]-7-fluoro-3-oxo-isoindolin-5-yl]ethynyl]-N-[1-[2-[4-[4-[[(3S)-2,6-dioxo-3-piperidyl]amino]-2-fluoro-phenyl]-1-piperidyl]acetyl]-4-piperidyl]pyridine-2-carboxamide]",10
2,"O=C1NC(=O)C2(Nc3ccc(C4CCN(CC(=O)N5CCC(Oc6ccc(-c7cc(F)c8c(c7)C(=O)N(C(C(=O)Nc7nccs7)c7ncn9c7CCC9)C8)cc6)CC5)CC4)cc3)CC1C2 (stereo not shown) [Compound 38, 2-(6,7-dihydro-5H-pyrrolo[1,2-c]imidazol-1-yl)-2-(6-(4-((1-(2-(4-(4-((2,4-dioxo-3-azabicyclo[3.1.1]heptan-1-yl)amino)phenyl)piperidin-1-yl)acetyl)piperidin-4-yl)oxy)phenyl)-4-fluoro-1-oxoisoindolin-2-yl)-N-(thiazol-2-yl)acetamide]",52
3,"O=C1CC[C@H](Nc2ccc(C3CCN(CC(=O)N4CC[C@H](Oc5ccc(-c6cc(F)c7c(c6)C(=O)N(C(C(=O)Nc6nccs6)c6ncn8c6CCC8)C7)cc5)C4)CC3)cc2)C(=O)N1 (stereo partly drawn) [Compound 42, 2-(6,7-dihydro-5H-pyrrolo[1,2-c]imidazol-1-yl)-2-[6-[4-[(3S)-1-[2-[4-[4-[[(3S)-2,6-dioxo-3-piperidyl]amino]phenyl]-1-piperidyl]acetyl]pyrrolidin-3-yl]oxyphenyl]-4-fluoro-1-oxo-isoindolin-2-yl]-N-thiazol-2-yl-acetamide]",20
4,"Cn1nc(N2CCC(=O)NC2=O)c2ccc(C3CCN(CC(=O)N4CC5(C4)CN(c4ccc(-c6cc(F)c7c(c6)C(=O)N(C(C(=O)Nc6nccs6)c6ncn8c6CCC8)C7)cc4)C5)CC3(F)F)cc21 (stereo not shown) [Compound 50, 2-(6,7-dihydro-5H-pyrrolo[1,2-c]imidazol-1-yl)-2-[6-[4-[2-[2-[4-[3-(2,4-dioxohexahydropyrimidin-1-yl)-1-methyl-indazol-6-yl]-3,3-difluoro-1-piperidyl]acetyl]-2,6-diazaspiro[3.3]heptan-6-yl]phenyl]-4-fluoro-1-oxo-isoindolin-2-yl]-N-thiazol-2-yl-acetamide]",10
5,"Cn1nc(N2CCC(=O)NC2=O)c2ccc(C3CCN(CC(=O)N4CC5(C4)CN(c4ccc(-c6cc(F)c7c(c6)C(=O)N(C(C(=O)Nc6ccccn6)c6ncn8c6CCC8)C7)cc4)C5)CC3)cc21 (stereo not shown) [Compound 54, 2-(6,7-dihydro-5H-pyrrolo[1,2-c]imidazol-1-yl)-2-[6-[4-[2-[2-[4-[3-(2,4-dioxohexahydropyrimidin-1-yl)-1-methyl-indazol-6-yl]-1-piperidyl]acetyl]-2,6-diazaspiro[3.3]heptan-6-yl]phenyl]-4-fluoro-1-oxo-isoindolin-2-yl]-N-(2-pyridyl)acetamide]",16
6,"O=C1CCC(Nc2ccc(C3CCN(CC(=O)N4CCN(c5ccc(-c6cc(F)c7cn(C(C(=O)Nc8nccs8)c8ncn9c8CCC9)nc7c6)cn5)CC4)CC3)cc2)C(=O)N1 (stereo not shown) [Compound 65, 2-(6,7-dihydro-5H-pyrrolo[1,2-c]imidazol-1-yl)-2-[6-[6-[4-[2-[4-[4-[(2,6-dioxo-3-piperidyl)amino]phenyl]-1-piperidyl]acetyl]piperazin-1-yl]-3-pyridyl]-4-fluoro-indazol-2-yl]-N-thiazol-2-yl-acetamide]",36

# Other lines, results leading:
row,DC50 [nM],SMILES
1,88,"O=C1CC[C@H](Nc2ccc(C3CCN(CC(=O)N4CCC(Oc5ccc(-c6cc(F)c7c(c6)C(=O)N(C(C(=O)Nc6nccs6)c6ncn8c6CCC8)C7)cc5)CC4)CC3)c(F)c2)C(=O)N1 (stereo partly drawn) [Compound 39, 2-(6,7-dihydro-5H-pyrrolo[1,2-c]imidazol-1-yl)-2-(6-(4-((1-(2-(4-(4-(((S)-2,6-dioxopiperidin-3-yl)amino)-2-fluorophenyl)piperidin-1-yl)acetyl)piperidin-4-yl)oxy)phenyl)-4-fluoro-1-oxoisoindolin-2-yl)-N-(thiazol-2-yl)acetamide]"
2,26,"O=C1CC[C@H](Nc2ccc(C3CCN(CC(=O)N4CC[C@@H](Oc5ccc(-c6cc(F)c7c(c6)C(=O)N(C(C(=O)Nc6nccs6)c6ncn8c6CCC8)C7)cc5)C4)CC3)cc2)C(=O)N1 (stereo partly drawn) [Compound 41, 2-(6,7-dihydro-5H-pyrrolo[1,2-c]imidazol-1-yl)-2-[6-[4-[(3R)-1-[2-[4-[4-[[(3S)-2,6-dioxo-3-piperidyl]amino]phenyl]-1-piperidyl]acetyl]pyrrolidin-3-yl]oxyphenyl]-4-fluoro-1-oxo-isoindolin-2-yl]-N-thiazol-2-yl-acetamide]"
3,11,"Cn1nc(N2CCC(=O)NC2=O)c2ccc(C3CCN(CC(=O)N4CC5(C4)CN(c4ccc(-c6cc(F)c7c(c6)C(=O)N(C(C(=O)Nc6ccccn6)c6ncn8c6CCC8)C7)cc4)C5)CC3(F)F)cc21 (stereo not shown) [Compound 55, 2-(6,7-dihydro-5H-pyrrolo[1,2-c]imidazol-1-yl)-2-[6-[4-[2-[2-[4-[3-(2,4-dioxohexahydropyrimidin-1-yl)-1-methyl-indazol-6-yl]-3,3-difluoro-1-piperidyl]acetyl]-2,6-diazaspiro[3.3]heptan-6-yl]phenyl]-4-fluoro-1-oxo-isoindolin-2-yl]-N-(2-pyridyl)acetamide]"
4,137,"O=C1CCC(Nc2ccc(C3CCN(CC(=O)N4CCN(c5ccc(-c6cc(F)c7cn(C(C(=O)Nc8nccs8)c8ncn9c8CCC9)nc7c6)cn5)CC4)CC3)c(F)c2)C(=O)N1 (stereo not shown) [Compound 64, 2-(6,7-dihydro-5H-pyrrolo[1,2-c]imidazol-1-yl)-2-[6-[6-[4-[2-[4-[4-[(2,6-dioxo-3-piperidyl)amino]-2-fluoro-phenyl]-1-piperidyl]acetyl]piperazin-1-yl]-3-pyridyl]-4-fluoro-indazol-2-yl]-N-thiazol-2-yl-acetamide]"

# Same assay, conditions: 6 hours, class symbols
row,SMILES,DC50 [nM]
1,"O=C1CCC(c2ccc(N3CCC(O)(CC(=O)N4CC5(CCN(c6ccc(-c7cc(F)c8c(c7)C(=O)N(C(C(=O)Nc7nccs7)c7ncn9c7CCC9)C8)cc6)CC5)C4)CC3)c(F)c2)C(=O)N1 (stereo not shown) [Compound 159, 2-(6,7-dihydro-5H-pyrrolo[1,2-c]imidazol-1-yl)-2-[6-[4-[2-[2-[1-[4-(2,6-dioxo-3-piperidyl)-2-fluoro-phenyl]-4-hydroxy-4-piperidyl]acetyl]-2,7-diazaspiro[3.5]nonan-7-yl]phenyl]-4-fluoro-1-oxo-isoindolin-2-yl]-N-thiazol-2-yl-acetamide]",50 to 150
2,"O=C1CCC(c2ccc(N3CCC(O)(CC(=O)N4CCC5(CC4)CN(c4ccc(-c6cc(F)c7c(c6)C(=O)N(C(C(=O)Nc6nccs6)c6ncn8c6CCC8)C7)cc4)C5)CC3)c(F)c2)C(=O)N1 (stereo not shown) [Compound 160, 2-(6,7-dihydro-5H-pyrrolo[1,2-c]imidazol-1-yl)-2-[6-[4-[7-[2-[1-[4-(2,6-dioxo-3-piperidyl)-2-fluoro-phenyl]-4-hydroxy-4-piperidyl]acetyl]-2,7-diazaspiro[3.5]nonan-2-yl]phenyl]-4-fluoro-1-oxo-isoindolin-2-yl]-N-thiazol-2-yl-acetamide]",50 to 150

# Now from value to compound:
row,DC50 [nM],SMILES
1,50 to 150,"O=C1CCC(Nc2cc(F)c(N3CCC(O)(CC(=O)N4CCC5(CC4)CN(c4ccc(-c6cc(F)c7c(c6)C(=O)N(C(C(=O)Nc6nccs6)c6ncn8c6CCC8)C7)cc4)C5)CC3)c(F)c2)C(=O)N1 (stereo not shown) [Compound 137, 2-(6,7-dihydro-5H-pyrrolo[1,2-c]imidazol-1-yl)-2-[6-[4-[7-[2-[1-[4-[[2,6-dioxo-3-piperidyl]amino]-2,6-difluoro-phenyl]-4-hydroxy-4-piperidyl]acetyl]-2,7-diazaspiro[3.5]nonan-2-yl]phenyl]-4-fluoro-1-oxo-isoindolin-2-yl]-N-thiazol-2-yl-acetamide]"
2,50 to 150,"O=C1CCC(Nc2cc(F)c(N3CCC(O)(CC(=O)N4CC5(C4)CN(c4ccc(-c6cc(F)c7c(c6)C(=O)N(C(C(=O)Nc6nccs6)c6ncn8c6CCC8)C7)cc4)C5)CC3)c(Cl)c2)C(=O)N1 (stereo not shown) [Compound 145, 2-[6-[4-[2-[2-[1-[2-chloro-4-[[2,6-dioxo-3-piperidyl]amino]-6-fluoro-phenyl]-4-hydroxy-4-piperidyl]acetyl]-2,6-diazaspiro[3.3]heptan-6-yl]phenyl]-4-fluoro-1-oxo-isoindolin-2-yl]-2-(6,7-dihydro-5H-pyrrolo[1,2-c]imidazol-1-yl)-N-thiazol-2-yl-acetamide]"
3,< 50,"O=C1CC[C@H](Nc2ccc(N3CCC(O)(C(=O)N4CC5(C4)CN(c4ccc(-c6cc(F)c7c(c6)C(=O)N(C(C(=O)Nc6nccs6)c6ncn8c6CCC8)C7)cc4)C5)CC3)c(F)c2)C(=O)N1 (stereo partly shown) [Compound 146, 2-(6,7-dihydro-5H-pyrrolo[1,2-c]imidazol-1-yl)-2-[6-[4-[2-[1-[4-[[2,6-dioxo-3-piperidyl]amino]-2-fluoro-phenyl]-4-hydroxy-piperidine-4-carbonyl]-2,6-diazaspiro[3.3]heptan-6-yl]phenyl]-4-fluoro-1-oxo-isoindolin-2-yl]-N-thiazol-2-yl-acetamide]"
